# According to patent publication US20220087987A1, “A METHOD FOR TREATING SWI/SNF COMPLEX-DEFICIENT CANCERS COMPRISING GLUTATHIONE (GSH) METABOLIC PATHWAY INHIBITOR” (National Cancer Center, priority 2018, published 2022):
# Tested on: ARID1A-WT and ARID1A-KO HCT116 cells
# Experiment: Cell viability and colony formation assays
# Format: cell-based, human
# Conditions: cell viability 5 days, colony formation 10 days
# Experimental: Cell viability was examined by measuring the cellular ATP level using the CellTiter-Glo Luminescent Cell Viability Assay (Promega). To measure cell viability after siRNA-mediated knockdown, cell lines were transfected with siRNAs (25 nM) using Lipofectamine RNAiMAX. After 48 hrs, cells were trypsinized and repeatedly transfected with siRNAs (25 nM) using Lipofectamine RNAiMAX. Cells were trypsinized after a further 48 hrs, counted, and reseeded at the specified density in 96-well plates. To measure cell viability after drug treatment, cells were trypsinized, counted, reseeded at the specified density in 96-well plates, and exposed to the indicated concentrations of drugs. Cell viability was measured using the CellTiter-Glo Luminescent Cell Viability Assay. Luminescence was measured using an Envision Multi-label plate reader (PerkinElmer).
# The effect of drug treatment on cancer cell survival was evaluated in a colony formation assay. Cells were trypsinized, counted, reseeded at the specified density in 12-well plates, exposed to the indicated concentrations of drugs for 10-14 days, and fixed for 10 min in 50% (v/v) methanol containing 0.01% (w/v) crystal violet. Images were taken on LAS-3000 Imaging System (Fujifilm) and colonies were counted using Multi Gauge software.
smiles,measurement,value
COCC1(CO)C(=O)C2CCN1CC2 (stereo not shown) [APR-246],growth / survival of ARID1A-KO versus ARID1A-WT cells,"markedly decreased the survival of ARID1A-KO cells, but not ARID1A-WT cells"
